From patent US8445501B2, “Substituted 7-carboxamido-pyrrolo[3,2-d]pyrimidines” (Takeda GmbH, priority 2008, dated 2013)
pIC50: −log10 of the molar value.

The compounds below were run against T1, human PDE5 (Homo sapiens, UniProt O76074) (assay: Inhibition of the type 5 phosphodiesterase (PDE5) activity, modified SPA test with platelet lysate). Settings: PDE5 from human platelet lysate, 0.5 μM cGMP.
T1 construct: from tissue; host or cells: platelets from fresh blood of human donors (lysate, 10,000 g supernatant)
Format: biochemical
Experimental: Method for Measuring Inhibition of the Type 5 Phosphodiesterase (PDE5) Activity:
As a source for human PDE5, platelets are used. For that purpose, 150 ml fresh blood from human donors anticoagulated with citrate [final concentration 0.3% (w/v)] is centrifuged at 200 g for 10 min to obtain the so-called platelet-rich-plasma (PRP) as a supernatant. 1/10 volume of ACD solution (85 mM Na3-citrate, 111 mM D-glucose, 71 mM citric acid, pH 4.4) is added to 9/10 volume of PRP. After centrifugation (1,400 g, 10 min) the cell pellet is resuspended in 3 ml homogenization buffer (NaCl 140 mM, KCl 3.8 mM, EGTA (ethylene glycol tetraacetic acid) 1 mM, MgCl2 1 mM, Tris-HCl 20 mM, beta-mercaptoethanol 1 mM, pH 8.2) plus protease-inhibitor mix giving rise to the final concentrations of 0.5 mM Pefablock (Roche), 10 μM Leupeptin, 5 μM Trypsininhibitor, 2 mM Benzamidin and 10 μM Pepstatin A. The suspension is sonified and thereafter centrifuged for 15 min at 10,000 g. The resulting supernatant (platelet lysate) is used for enzymatic testings.
PDE5A1 activity is inhibited by the compounds of the invention in a modified SPA (scintillation proximity assay) test, supplied by Amersham Biosciences (see procedural instructions “phosphodiesterase [3H]cAMP SPA enzyme assay, code TRKQ 7090”), carried out in 96-well microtitre plates (MTP's). The test volume is 100 μl and contains 20 mM Tris buffer (pH 7.4), 0.1 mg of BSA (bovine serum albumin)/ml, 5 mM Mg^2+, 1 μM motapizone, 10 nM PDE2 inhibitor 2-(3,4-dimethoxybenzyl)-7-[(1R,2R)-2-hydroxy-1-(2-phenylethyl)propyl]-5-methylimidazo[5,1-f][1,2,4]triazin-4(3H)-one, 0.5 μM cGMP (cyclic guanosine monophosphate) (including about 50,000 cpm of [3H]cGMP as a tracer), 1 μl of the respective compound dilution in dimethylsulfoxide (DMSO) and sufficient PDE5-containing platelet lysat (10,000×g supernatant, see above) to ensure that 10-20 wt % of the cGMP is converted under the said experimental conditions. […] After a preincubation of 5 min at 37° C., the reaction is started by adding the substrate (cGMP) and the assay is incubated for a further 15 min; after that, it is stopped by adding SPA beads (50 μl). In accordance with the manufacturer's instructions, the SPA beads had previously been resuspended in water, but are then diluted 1:3 (v/v) in water; the diluted solution also contains 3 mM […] (IBMX) to ensure a complete PDE activity stop. After the beads have been sedimented (>30 min), the MTP's are analyzed in commercially available luminescence detection de-vices. The corresponding IC50 values of the compounds for the inhibition of PDE activity are deter-mined from the concentration-effect curves by means of non-linear regression.

Row | pIC50 | Structure (SMILES)
1 | 9.47 | CCOC(=O)N[C@H]1CC[C@@H](NC(=O)c2c[nH]c3c(-c4ccc(OC)cc4OCC4CC4)ncnc23)CC1 [Example 58, cis-(4-{[4-(2-Cyclopropylmethoxy-4-methoxy-phenyl)-5H-pyrrolo[3,2-d]pyrimidine-7-carbonyl]-amino}-cyclohexyl)-carbamic acid ethyl ester]
2 | 8.63 | Cc1ccc(OCC2CC2)c(-c2ncnc3c(C(=O)NC4CCN(C(=O)[C@H](C)O)CC4)c[nH]c23)c1 [Example 247, 4-(2-Cyclopropylmethoxy-5-methyl-phenyl)-5H-pyrrolo[3,2-d]pyrimidine-7-carboxylic acid [1-((S)-2-hydroxy-propionyl)piperidin-4-yl]-amide]
3 | 8.80 | CC(=O)N[C@H]1CC[C@@H](NC(=O)c2c[nH]c3c(-c4ccc(F)cc4OCC4CC4)ncnc23)CC1 [Example 75, cis-4-(2-Cyclopropylmethoxy-4-fluoro-phenyl)-5H-pyrrolo[3,2-d]pyrimidine-7-carboxylic acid (4-acetylamino-cyclohexyl)-amide]
4 | 8.65 | CCC(=O)N1CCC[C@H](NC(=O)c2c[nH]c3c(-c4cc(F)c(OC)cc4OCC4CC4)ncnc23)C1 [Example 114, 4-(2-Cyclopropylmethoxy-5-fluoro-4-methoxy-phenyl)-5H-pyrrolo[3,2-d]pyrimidine-7-carboxylic acid ((S)-1-propionyl-piperidin-3-yl)-amide]
5 | 8.15 | C[C@H](O)C(=O)N[C@H]1CC[C@H](NC(=O)c2c[nH]c3c(-c4ccccc4OCC4CC4)ncnc23)CC1 [Example 225, trans-4-(2-Cyclopropylmethoxy-phenyl)-5H-pyrrolo[3,2-d]pyrimidine-7-carboxylic acid [4-((S)-2-hydroxy-propionylamino)-cyclohexyl]-amide]
6 | 9.11 | CC(=O)N1CC(NC(=O)c2c[nH]c3c(-c4c(OCC5CC5)ccc5c4OCO5)ncnc23)C1 [Example 39, 4-(5-Cyclopropylmethoxy-benzo[1,3]dioxol-4-yl)-5H-pyrrolo[3,2-d]pyrimidine-7-carboxylic acid (1-acetyl-azetidin-3-yl)-amide]
7 | 8.96 | Cc1ccc(OCC2CC2)c(-c2ncnc3c(C(=O)NC4CCN(C(=O)C5(O)CC5)CC4)c[nH]c23)c1 [Example 248, 4-(2-Cyclopropylmethoxy-5-methyl-phenyl)-5H-pyrrolo[3,2-d]pyrimidine-7-carboxylic acid [1-(1-hydroxy-cyclopropanecarbonyl)-piperidin-4-yl]-amide]
8 | 8.06 | CC(=O)N1CCC(NC(=O)c2c[nH]c3c(-c4ccccc4OCC4CC4)ncnc23)CC1 [Example 94, 4-(2-Cyclopropylmethoxy-phenyl)-5H-pyrrolo[3,2-d]pyrimidine-7-carboxylic acid (1-acetyl-piperidin-4-yl)-amide]
9 | 9.67 | CC(=O)N[C@H]1CC[C@@H](NC(=O)c2c[nH]c3c(-c4c(OCC5CC5)ccc5c4OCO5)ncnc23)CC1 [Example 7, cis-4-(5-Cyclopropylmethoxy-benzo[1,3]dioxol-4-yl)-5H-pyrrolo[3,2-d]pyrimidine-7-carboxylic acid (4-acetylamino-cyclohexyl)-amide]
10 | 9.18 | COc1ccc(-c2ncnc3c(C(=O)NC4CCN(C(=O)[C@H](C)O)CC4)c[nH]c23)c(OCC2CC2)c1 [Example 206, 4-(2-Cyclopropylmethoxy-4-methoxy-phenyl)-5H-pyrrolo[3,2-d]pyrimidine-7-carboxylic acid [1-((S)-2-hydroxy-propanoyl)piperidin-4-yl]-amide]
11 | 9.23 | C[C@H](O)C(=O)N1CC[C@@H](NC(=O)c2c[nH]c3c(-c4c(OCC5CC5)ccc5c4OCO5)ncnc23)C1 [Example 181, 4-(5-Cyclopropylmethoxy-benzo[1,3]dioxol-4-yl)-5H-pyrrolo[3,2-d]pyrimidine-7-carboxylic acid [(R)-1-((S)-2-hydroxy-propanoyl)-pyrrolidin-3-yl]amide]
12 | 9.08 | C[C@H](O)C(=O)N1CCOC(CNC(=O)c2c[nH]c3c(-c4c(OCC5CC5)ccc5c4OCO5)ncnc23)C1 (stereo partly drawn) [Example 194, 4-(5-Cyclopropylmethoxy-benzo[1,3]dioxol-4-yl)-5H-pyrrolo[3,2-d]pyrimidine-7-carboxylic acid [4-((S)-2-hydroxy-propionyl)-morpholin-2-ylmethyl]-amide]
13 | 8.94 | COCC(=O)N[C@H]1CC[C@@H](NC(=O)c2c[nH]c3c(-c4c(OCC5CC5)ccc5c4OCO5)ncnc23)CC1 [Example 9, cis-4-(5-Cyclopropylmethoxy-benzo[1,3]dioxol-4-yl)-5H-pyrrolo[3,2-d]pyrimidine-7-carboxylic acid [4-(2-methoxy-ethanoylamino)-cyclohexyl]-amide]
14 | 9.34 | COCC(=O)N1CCC(CNC(=O)c2c[nH]c3c(-c4c(OCC5CC5)ccc5c4OCO5)ncnc23)CC1 [Example 26, 4-(5-Cyclopropylmethoxy-benzo[1,3]dioxol-4-yl)-5H-pyrrolo[3,2-d]pyrimidine-7-carboxylic acid [1-(2-methoxy-ethanoyl)-piperidin-4-ylmethyl]-amide]
15 | 9.26 | COc1ccc(-c2ncnc3c(C(=O)N[C@H]4CC[C@H](C(=O)NC5CC5)CC4)c[nH]c23)c(OCC2CC2)c1 [Example 271, trans-4-(2-Cyclopropylmethoxy-4-methoxy-phenyl)-5H-pyrrolo[3,2-d]pyrimidine-7-carboxylic acid (4-cyclopropylcarbamoyl-cyclohexyl)-amide]
16 | 9.15 | O=CN1CCOC(CNC(=O)c2c[nH]c3c(-c4c(OCC5CC5)ccc5c4OCO5)ncnc23)C1 (stereo not drawn) [Example 35, 4-(5-Cyclopropylmethoxy-benzo[1,3]dioxol-4-yl)-5H-pyrrolo[3,2-d]pyrimidine-7-carboxylic acid (4-formyl-morpholin-2-ylmethyl)-amide]
17 | 7.62 | COCCOc1cc(OC)ccc1-c1ncnc2c(C(=O)NC3CCN(C(C)=O)CC3)c[nH]c12 [Example 158, 4-[4-Methoxy-2-(2-methoxy-ethoxy)-phenyl]-5H-pyrrolo[3,2-d]pyrimidine-7-carboxylic acid (1-acetyl-piperidin-4-yl)-amide]
18 | 9.41 | CC(=O)N1CCC(NC(=O)c2c[nH]c3c(-c4c(OCC5CCC5)ccc5c4OCO5)ncnc23)CC1 [Example 129, 4-(5-Cyclobutylmethoxy-benzo[1,3]dioxol-4-yl)-5H-pyrrolo[3,2-d]pyrimidine-7-carboxylic acid (1-acetyl-piperidin-4-yl)-amide]
19 | 9.41 | COc1ccc(-c2ncnc3c(C(=O)N[C@H]4CC[C@@H](NC(=O)[C@H](C)O)CC4)c[nH]c23)c(OCC2CC2)c1 [Example 203, cis-4-(2-Cyclopropylmethoxy-4-methoxy-phenyl)-5H-pyrrolo[3,2-d]pyrimidine-7-carboxylic acid [4-((S)-2-hydroxy-propionylamino)-cyclohexyl]-amide]
20 | 8.43 | CCOc1ccc2c(c1-c1ncnc3c(C(=O)N[C@@H]4CCN(C(=O)CC)C4)c[nH]c13)OCO2 [Example 136, 4-(5-Ethoxy-benzo[1,3]dioxol-4-yl)-5H-pyrrolo[3,2-d]pyrimidine-7-carboxylic acid ((R)-1-propionyl-pyrrolidin-3-yl)-amide]

Row | Structure (SMILES) | pIC50
21 | CCCCOc1ccc2c(c1-c1ncnc3c(C(=O)NC4CCCN(C(=O)COC)C4)c[nH]c13)OCO2 (stereo not drawn) [Example 149, 4-(5-Butoxy-benzo[1,3]dioxol-4-yl)-5H-pyrrolo[3,2-d]pyrimidine-7-carboxylic acid [1-(2-methoxy-acetyl)piperidin-3-yl]-amide] | 9.53
